The values below come from patent publication USRE48253E1, “Methotrexate adjuvants to reduce toxicity and methods for using the same” (Tosk, Inc., priority 2008, dated 2020).

Read-outs that look alike come from different tables or passages of the source.

In assay [1] the target is mouse small intestinal UPase enzyme (Mus musculus, UniProt P52624). Kind of assay: UPase inhibition in mouse small intestinal tissue homogenate (HPLC of uracil). Format: biochemical. Here is the method:
A range of TK-112690 doses were studied for the their ability to prevent metabolic breakdown of uridine through the in vitro inhibition of mouse and human small intestinal UPase enzyme. UPase activity was determined by HPLC analysis using UV detection of uracil concentration (UPase catabolizes uridine into uracil and ribose-1-phosphate). The UPase enzyme material was prepared from homogenized mouse and human being small intestinal tissue. TK-112690 was dissolved in water (50 mg/ml) and analyzed for UPase inhibition in aqueous solution containing 5 mM uridine, 0.01 M Tris, 0.01 M phosphate, 1 mM EDTA, and 1 mM DTT. Reactions were performed at 37° C. at pH of 7.3.
The aim of this study was to evaluate TK-112690 […] as an inhibitor of uridine phosphorylase (UPase) enzyme activity. The range of TK-112690 doses studied for ability to prevent metabolic breakdown of uridine, through the in vitro inhibition of mouse and human small intestinal UPase enzyme, was 0, 0.1, 0.5, 1, 5, 10, 50, 100, 500, 1000, 5000 and 10000 μM). Detection of UPase activity was determined by HPLC analysis using UV detection of uracil concentration (UPase catabolizes uridine into uracil and ribose-1-phosphate).
The UPase enzyme material was prepared from homogenized mouse and human being small intestinal tissue. TK-112690 was dissolved in water (50 mg/ml) and analyzed for UPase inhibition in aqueous solution containing 5 mM uridine, 0.01 M Tris, 0.01 M phosphate, 1 mM EDTA, and 1 mM DTT. Reactions were performed at 37° C. at pH of 7.3.
TK-11260 inhibition of mouse and human UPase was analyzed by reverse phase HPLC using UV detection. HPLC analysis was performed at ambient temperature with a Water 2695 Alliance system equipped with a C18 ECONOSIL 5 U ALLtech column. 20 μl of UPase reaction samples were auto-injected onto column. Mobile phase consisted of water eluting for first 2.5 ml and acetonitrile gradient to 100% in 12.5 ml (flow rate 0.5 ml/min). The outlet fluent was monitored by UV absorption in the range of 240-320 nm. UPase enzymatic activity was based on the AUC of the uracil peaks.

The test system of assay [2] is C57BL/6 mice. In words: Mouse Study I: protection from MTX-induced weight loss (LPS/MTX model). It is filed as in vivo. The following applies: 10 or 30 mg/kg ip 3 hr before and after MTX; LPS+MTX treated mice. Here is the method:
C57BL/6 mice (10 animals/treatment group) were dosed on Day 1 with LPS (5 μg, i.p.). On Day 2, the animals were treated with 200 mg/kg MTX+10 or 30 mg/kg TK-112690 3 hr before and 3 hr after the MTX treatment. On Day 3, the animals were dosed MTX 100 mg/kg+10 or 30 mg/kg TK±3 hr. On day 8, the Day 8-Day 1 weight was determined and results subject to ANOVA. Group 1=saline alone, Group 2=MTX alone, Group 3=LPS alone, Group 4=MTX+LPS, Group 5=10 mg/kg TK-112690+MTX+LPS or Group 6=30 mg/kg TK-112690+MTX+LPS.
This mouse model is modified from a published procedure (de Koning et al., Int Immunol 18: 941 (2006)). Mice are treated on day one with a single intraperitoneal (ip) dose of lipopolysaccharide (LPS), followed by two consecutive days with 200 and 100 mg/kg ip methotrexate, respectively. Controls include saline alone for days 1, 2, and 3, saline on day 1 plus MTX on days 2 and 3 and LPS on day one with saline injection on days 2 and 3. Experimental groups are given LPS on day one and 10 or 30 mg/kg, TK-112690, a representative 2,2′-anhydropyrimidine test article, ip 3 hours before, and 3 hours after, methotrexate injection on days 2 and 3. Animal weights are measured every day after the first injection with experiment termination five days after the second methotrexate injection (day 8). Weight loss is representative of MTX-induced toxicity, and one aspect of MTX-induced mucositis. […]

Chain of mouse small intestinal UPase enzyme (P52624 whole entry, looked up): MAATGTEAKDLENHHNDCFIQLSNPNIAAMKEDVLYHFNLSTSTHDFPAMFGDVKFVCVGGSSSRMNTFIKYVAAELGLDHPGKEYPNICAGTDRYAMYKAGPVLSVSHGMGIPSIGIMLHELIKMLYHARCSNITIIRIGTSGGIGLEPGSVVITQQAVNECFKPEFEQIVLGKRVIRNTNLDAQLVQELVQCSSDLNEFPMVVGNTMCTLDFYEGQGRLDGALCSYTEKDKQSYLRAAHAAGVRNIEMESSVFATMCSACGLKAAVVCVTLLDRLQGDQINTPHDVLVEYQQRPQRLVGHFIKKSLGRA

Broadly, the IC50 is the concentration needed to halve the response being measured. On to `Cc1cn2c(nc1=O)O[C@H]1[C@H](O)[C@@H](CO)O[C@H]12` [TK-112690, 2,2′-anhydro-5-methyluridine], for which the half-maximal inhibitory concentration (IC50) was 12.5 µM in assay [1] (5 mM uridine, 37° C., pH 7.3, read-out: IC50, mouse small intestinal (murine) UPase) and under 100 µM in assay [1] (Table 3, murine UPase, test method of Experiment IX, read-out: UPase IC50). Besides, the “protection from MTX-induced weight loss (Day 8-Day 1 weight)” value in assay [2] is reported as “highly significant”.
